Tests used:
Rhodopsin kinase GRK7 = molecular target: T1, Rhodopsin kinase GRK7 (Homo sapiens, UniProt Q8WTQ7); test: Inhibition of recombinant human full length GST-tagged GRK7 expressed in baculovirus using ulight topo2alpha as substrate preincubated for 60 mins followed by substrate addition measured after 10 mins by Lance TR-FRET assay
T1 sequence (Q8WTQ7 whole entry): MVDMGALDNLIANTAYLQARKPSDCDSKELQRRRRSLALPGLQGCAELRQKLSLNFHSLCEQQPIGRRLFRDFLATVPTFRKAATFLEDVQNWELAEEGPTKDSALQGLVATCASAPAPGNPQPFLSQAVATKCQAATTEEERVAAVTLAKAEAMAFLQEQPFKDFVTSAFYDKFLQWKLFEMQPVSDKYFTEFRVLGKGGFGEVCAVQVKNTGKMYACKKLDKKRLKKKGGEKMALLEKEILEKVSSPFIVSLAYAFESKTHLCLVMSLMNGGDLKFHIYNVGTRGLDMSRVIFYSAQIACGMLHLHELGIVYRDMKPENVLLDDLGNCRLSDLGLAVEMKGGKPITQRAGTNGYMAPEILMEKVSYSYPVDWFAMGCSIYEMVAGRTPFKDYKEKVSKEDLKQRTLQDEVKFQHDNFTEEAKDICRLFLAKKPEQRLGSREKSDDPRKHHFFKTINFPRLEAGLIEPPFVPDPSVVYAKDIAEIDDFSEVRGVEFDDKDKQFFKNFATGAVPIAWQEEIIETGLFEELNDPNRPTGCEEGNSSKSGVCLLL

[1] = molecular target: Rho-associated protein kinase 2 (Homo sapiens, UniProt O75116); test: Inhibition of recombinant human N-terminal GST-tagged ROCK2 catalytic domain (1 to 553 residues) expressed in baculovirus expression system using STK 2-biotin as substrate measured after 60 mins by HTRF/TR-FRET assay
CYP3A4 = CYP3A4 (Homo sapiens, UniProt P08684); test: Inhibition of CYP3A4 (unknown origin) at 10 uM; assay type: ADME
[2] = molecular target: G protein-coupled receptor kinase 6 (Homo sapiens, UniProt P43250); test: Inhibition of recombinant human full length GST-tagged GRK6 expressed in baculovirus using ulight topo2alpha as substrate preincubated for 60 mins followed by substrate addition measured after 10 mins by Lance TR-FRET assay
[3] = molecular target: Protein kinase C alpha type (Homo sapiens, UniProt P17252); test: Inhibition of human PKCalpha active using MBP as substrate after 60 mins in presence of [gamma-32]ATP by scintillation counting
Rhodopsin kinase GRK1 = molecular target: T2, Rhodopsin kinase GRK1 (Homo sapiens, UniProt Q15835); test: Inhibition of recombinant human GST-tagged GRK1 expressed in baculovirus infected fall armyworm Sf9 cells after 60 mins by LanthaScreen eu kinase binding assay
T2 sequence (Q15835 whole entry): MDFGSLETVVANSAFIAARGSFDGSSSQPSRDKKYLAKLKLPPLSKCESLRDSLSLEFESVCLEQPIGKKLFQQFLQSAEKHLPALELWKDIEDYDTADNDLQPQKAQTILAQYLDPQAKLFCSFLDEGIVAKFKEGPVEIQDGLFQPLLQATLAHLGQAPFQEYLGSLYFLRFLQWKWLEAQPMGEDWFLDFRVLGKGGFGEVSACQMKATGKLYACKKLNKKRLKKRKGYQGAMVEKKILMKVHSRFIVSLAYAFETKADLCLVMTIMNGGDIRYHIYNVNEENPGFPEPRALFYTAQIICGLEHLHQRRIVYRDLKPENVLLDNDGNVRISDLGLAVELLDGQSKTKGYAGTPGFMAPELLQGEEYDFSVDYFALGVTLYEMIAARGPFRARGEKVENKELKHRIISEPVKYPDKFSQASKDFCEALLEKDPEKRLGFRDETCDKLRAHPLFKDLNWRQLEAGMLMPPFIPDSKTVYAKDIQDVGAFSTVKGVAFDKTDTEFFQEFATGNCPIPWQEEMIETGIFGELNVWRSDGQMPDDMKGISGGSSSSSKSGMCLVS

[4] = molecular target: G protein-coupled receptor kinase 5 (Homo sapiens, UniProt P34947)
Description: Inhibition of recombinant human full length GST-tagged GRK5 expressed in baculovirus using ulight topo2alpha as substrate preincubated for 60 mins followed by substrate addition measured after 10 mins by Lance TR-FRET assay

[5] = molecular target: T3, G protein-coupled receptor kinase 3 (Homo sapiens, UniProt P35626); test: Inhibition of recombinant human full length GST-tagged GRK3 expressed in baculovirus using ulight topo2alpha as substrate preincubated for 60 mins followed by substrate addition measured after 10 mins by Lance TR-FRET assay
T3 sequence (P35626 whole entry): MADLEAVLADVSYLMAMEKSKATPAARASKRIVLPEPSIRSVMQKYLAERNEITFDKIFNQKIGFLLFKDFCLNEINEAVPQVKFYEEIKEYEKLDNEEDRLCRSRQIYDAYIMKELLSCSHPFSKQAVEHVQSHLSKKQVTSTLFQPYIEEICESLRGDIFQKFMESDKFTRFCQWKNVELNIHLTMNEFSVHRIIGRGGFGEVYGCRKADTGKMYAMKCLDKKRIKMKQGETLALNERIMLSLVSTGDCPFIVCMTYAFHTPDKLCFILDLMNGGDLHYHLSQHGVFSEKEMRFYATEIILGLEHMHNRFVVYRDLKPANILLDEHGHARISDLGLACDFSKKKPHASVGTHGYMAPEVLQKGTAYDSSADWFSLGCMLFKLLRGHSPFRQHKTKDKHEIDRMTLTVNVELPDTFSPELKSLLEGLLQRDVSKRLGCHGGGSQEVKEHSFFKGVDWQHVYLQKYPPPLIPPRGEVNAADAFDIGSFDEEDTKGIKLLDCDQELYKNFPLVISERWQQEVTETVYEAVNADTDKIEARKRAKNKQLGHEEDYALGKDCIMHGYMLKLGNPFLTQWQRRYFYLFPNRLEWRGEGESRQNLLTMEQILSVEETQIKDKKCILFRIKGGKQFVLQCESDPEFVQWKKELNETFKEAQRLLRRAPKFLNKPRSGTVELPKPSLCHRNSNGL

[6] = molecular target: T4, Beta-adrenergic receptor kinase 1 (Homo sapiens, UniProt P25098); test: Inhibition of human GRK2 expressed in HEK-B2 cells assessed as isoproterenol-stimulated cAMP accumulation preincubation for 20 mins followed by isoproterenol stimulation measured after 20 mins by cAMP ALPHA-screen assay; assay type: cell-based
T4 sequence (P25098 whole entry): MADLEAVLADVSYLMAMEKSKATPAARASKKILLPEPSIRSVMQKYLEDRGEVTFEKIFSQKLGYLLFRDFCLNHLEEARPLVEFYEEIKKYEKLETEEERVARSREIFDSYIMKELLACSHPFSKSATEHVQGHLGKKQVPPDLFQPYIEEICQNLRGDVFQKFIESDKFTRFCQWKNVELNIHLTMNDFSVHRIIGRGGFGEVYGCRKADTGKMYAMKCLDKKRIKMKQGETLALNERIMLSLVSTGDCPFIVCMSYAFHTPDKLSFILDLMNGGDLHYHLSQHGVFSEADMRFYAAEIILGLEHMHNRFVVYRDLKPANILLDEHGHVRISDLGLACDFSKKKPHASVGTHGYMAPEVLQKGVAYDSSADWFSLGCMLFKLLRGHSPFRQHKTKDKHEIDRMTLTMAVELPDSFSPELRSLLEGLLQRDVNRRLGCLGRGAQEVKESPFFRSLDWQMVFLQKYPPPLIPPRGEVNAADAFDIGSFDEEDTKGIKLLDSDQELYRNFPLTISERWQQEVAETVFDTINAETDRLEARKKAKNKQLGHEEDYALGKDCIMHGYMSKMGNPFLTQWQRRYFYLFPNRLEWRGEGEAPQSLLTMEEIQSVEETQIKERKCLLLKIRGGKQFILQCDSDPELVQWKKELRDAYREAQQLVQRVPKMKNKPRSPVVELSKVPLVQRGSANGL

hERG (KCNH2) [7] = molecular target: T5, hERG (KCNH2) (Homo sapiens, UniProt Q12809); test: Displacement of [3H]Astemizole from human ERG expressed in HEK293 cell membranes at 10 uM after 60 mins; details: membranes of HEK293 cells that express hERG, probe [3H]Astemizole
hERG (KCNH2) [8] = molecular target: T5, hERG (KCNH2); test: Displacement of [3H]Astemizole from human ERG expressed in HEK293 cell membranes at 1 uM after 60 mins; details: membranes of HEK293 cells that express hERG, probe [3H]Astemizole
[9] = Inhibition of recombinant human PKA expressed in Escherichia coli using LRRASLG as substrate preincubated for 15 mins followed by substrate addition measured after 15 mins in presence of [gamma-33P]-ATP by scintillation counting

Sequence of G protein-coupled receptor kinase 5 (P34947 whole entry): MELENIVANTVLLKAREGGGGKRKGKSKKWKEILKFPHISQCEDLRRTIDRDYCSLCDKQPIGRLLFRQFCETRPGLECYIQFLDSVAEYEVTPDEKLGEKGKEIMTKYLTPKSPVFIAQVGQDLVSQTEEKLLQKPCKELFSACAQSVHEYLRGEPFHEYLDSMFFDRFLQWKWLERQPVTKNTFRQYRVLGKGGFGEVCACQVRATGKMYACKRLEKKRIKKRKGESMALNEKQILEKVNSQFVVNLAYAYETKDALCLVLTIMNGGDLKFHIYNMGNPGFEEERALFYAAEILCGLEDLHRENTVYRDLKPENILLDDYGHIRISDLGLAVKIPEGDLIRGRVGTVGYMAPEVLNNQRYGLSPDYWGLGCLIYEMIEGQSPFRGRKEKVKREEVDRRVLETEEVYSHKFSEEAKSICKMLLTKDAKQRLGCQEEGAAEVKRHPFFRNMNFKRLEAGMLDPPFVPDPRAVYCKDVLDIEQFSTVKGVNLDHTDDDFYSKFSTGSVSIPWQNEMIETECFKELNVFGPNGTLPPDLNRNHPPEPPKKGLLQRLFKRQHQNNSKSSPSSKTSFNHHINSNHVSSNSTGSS
Sequence of Rho-associated protein kinase 2 (O75116 whole entry, the tested form may be a part): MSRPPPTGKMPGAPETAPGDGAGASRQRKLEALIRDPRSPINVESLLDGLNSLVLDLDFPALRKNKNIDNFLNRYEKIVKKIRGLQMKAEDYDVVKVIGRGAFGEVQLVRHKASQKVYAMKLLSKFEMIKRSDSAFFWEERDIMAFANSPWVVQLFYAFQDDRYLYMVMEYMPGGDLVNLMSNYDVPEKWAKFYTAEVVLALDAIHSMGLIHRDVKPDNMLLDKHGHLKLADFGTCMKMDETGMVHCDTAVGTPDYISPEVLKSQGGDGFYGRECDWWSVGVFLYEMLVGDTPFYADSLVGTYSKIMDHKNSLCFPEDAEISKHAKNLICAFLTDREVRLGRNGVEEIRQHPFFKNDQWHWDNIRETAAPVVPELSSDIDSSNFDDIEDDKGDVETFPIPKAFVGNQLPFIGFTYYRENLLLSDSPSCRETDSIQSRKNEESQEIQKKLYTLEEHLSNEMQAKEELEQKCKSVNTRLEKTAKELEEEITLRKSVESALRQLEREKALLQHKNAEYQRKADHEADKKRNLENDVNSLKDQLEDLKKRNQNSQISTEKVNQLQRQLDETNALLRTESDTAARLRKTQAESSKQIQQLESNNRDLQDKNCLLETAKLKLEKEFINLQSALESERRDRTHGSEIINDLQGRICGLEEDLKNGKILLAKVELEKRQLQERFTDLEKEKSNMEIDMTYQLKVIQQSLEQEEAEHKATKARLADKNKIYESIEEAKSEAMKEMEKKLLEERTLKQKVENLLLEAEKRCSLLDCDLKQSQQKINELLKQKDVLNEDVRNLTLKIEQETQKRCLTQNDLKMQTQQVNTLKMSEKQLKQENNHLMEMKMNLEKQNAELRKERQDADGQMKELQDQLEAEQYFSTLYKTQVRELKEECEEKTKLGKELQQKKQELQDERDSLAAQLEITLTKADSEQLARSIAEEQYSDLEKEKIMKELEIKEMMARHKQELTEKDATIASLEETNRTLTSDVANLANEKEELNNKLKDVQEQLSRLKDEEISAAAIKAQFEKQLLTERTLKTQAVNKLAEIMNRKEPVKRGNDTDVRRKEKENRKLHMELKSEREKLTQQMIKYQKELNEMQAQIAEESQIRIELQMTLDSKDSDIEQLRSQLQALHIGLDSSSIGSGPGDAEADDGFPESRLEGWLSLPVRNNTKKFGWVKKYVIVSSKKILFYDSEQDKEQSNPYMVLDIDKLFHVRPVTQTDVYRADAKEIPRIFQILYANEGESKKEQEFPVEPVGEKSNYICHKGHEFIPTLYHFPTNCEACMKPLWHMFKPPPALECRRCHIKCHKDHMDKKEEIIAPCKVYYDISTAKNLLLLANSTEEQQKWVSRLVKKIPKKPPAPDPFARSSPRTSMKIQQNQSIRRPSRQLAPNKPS
Sequence of G protein-coupled receptor kinase 6 (P43250 whole entry): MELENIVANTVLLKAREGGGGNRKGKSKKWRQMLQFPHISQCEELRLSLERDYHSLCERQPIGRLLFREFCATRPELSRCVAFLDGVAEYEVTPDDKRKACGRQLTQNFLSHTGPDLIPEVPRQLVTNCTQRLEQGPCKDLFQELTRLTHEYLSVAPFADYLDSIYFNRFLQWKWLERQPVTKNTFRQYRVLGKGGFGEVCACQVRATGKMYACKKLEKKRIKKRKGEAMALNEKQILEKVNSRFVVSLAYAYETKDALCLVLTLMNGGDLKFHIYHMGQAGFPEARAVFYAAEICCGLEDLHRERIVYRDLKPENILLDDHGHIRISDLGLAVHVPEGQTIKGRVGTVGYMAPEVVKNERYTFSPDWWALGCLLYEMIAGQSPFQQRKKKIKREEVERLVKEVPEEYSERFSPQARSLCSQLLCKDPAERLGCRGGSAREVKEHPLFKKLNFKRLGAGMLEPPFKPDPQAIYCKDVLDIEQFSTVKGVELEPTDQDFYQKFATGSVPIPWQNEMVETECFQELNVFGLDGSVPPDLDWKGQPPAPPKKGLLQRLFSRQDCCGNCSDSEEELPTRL
Sequence of CYP3A4 (P08684 whole entry): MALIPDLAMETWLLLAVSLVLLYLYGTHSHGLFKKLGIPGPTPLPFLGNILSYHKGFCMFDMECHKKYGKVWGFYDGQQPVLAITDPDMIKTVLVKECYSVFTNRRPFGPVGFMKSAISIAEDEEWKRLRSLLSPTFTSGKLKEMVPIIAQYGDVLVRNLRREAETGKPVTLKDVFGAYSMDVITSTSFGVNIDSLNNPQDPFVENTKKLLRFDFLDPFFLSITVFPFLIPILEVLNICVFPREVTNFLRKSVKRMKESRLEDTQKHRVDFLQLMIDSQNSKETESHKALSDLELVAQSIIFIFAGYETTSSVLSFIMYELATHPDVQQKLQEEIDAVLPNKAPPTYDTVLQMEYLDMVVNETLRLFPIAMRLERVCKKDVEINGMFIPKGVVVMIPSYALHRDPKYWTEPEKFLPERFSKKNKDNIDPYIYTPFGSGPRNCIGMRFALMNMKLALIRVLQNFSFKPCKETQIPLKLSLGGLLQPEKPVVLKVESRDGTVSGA
T5 sequence (Q12809 whole entry): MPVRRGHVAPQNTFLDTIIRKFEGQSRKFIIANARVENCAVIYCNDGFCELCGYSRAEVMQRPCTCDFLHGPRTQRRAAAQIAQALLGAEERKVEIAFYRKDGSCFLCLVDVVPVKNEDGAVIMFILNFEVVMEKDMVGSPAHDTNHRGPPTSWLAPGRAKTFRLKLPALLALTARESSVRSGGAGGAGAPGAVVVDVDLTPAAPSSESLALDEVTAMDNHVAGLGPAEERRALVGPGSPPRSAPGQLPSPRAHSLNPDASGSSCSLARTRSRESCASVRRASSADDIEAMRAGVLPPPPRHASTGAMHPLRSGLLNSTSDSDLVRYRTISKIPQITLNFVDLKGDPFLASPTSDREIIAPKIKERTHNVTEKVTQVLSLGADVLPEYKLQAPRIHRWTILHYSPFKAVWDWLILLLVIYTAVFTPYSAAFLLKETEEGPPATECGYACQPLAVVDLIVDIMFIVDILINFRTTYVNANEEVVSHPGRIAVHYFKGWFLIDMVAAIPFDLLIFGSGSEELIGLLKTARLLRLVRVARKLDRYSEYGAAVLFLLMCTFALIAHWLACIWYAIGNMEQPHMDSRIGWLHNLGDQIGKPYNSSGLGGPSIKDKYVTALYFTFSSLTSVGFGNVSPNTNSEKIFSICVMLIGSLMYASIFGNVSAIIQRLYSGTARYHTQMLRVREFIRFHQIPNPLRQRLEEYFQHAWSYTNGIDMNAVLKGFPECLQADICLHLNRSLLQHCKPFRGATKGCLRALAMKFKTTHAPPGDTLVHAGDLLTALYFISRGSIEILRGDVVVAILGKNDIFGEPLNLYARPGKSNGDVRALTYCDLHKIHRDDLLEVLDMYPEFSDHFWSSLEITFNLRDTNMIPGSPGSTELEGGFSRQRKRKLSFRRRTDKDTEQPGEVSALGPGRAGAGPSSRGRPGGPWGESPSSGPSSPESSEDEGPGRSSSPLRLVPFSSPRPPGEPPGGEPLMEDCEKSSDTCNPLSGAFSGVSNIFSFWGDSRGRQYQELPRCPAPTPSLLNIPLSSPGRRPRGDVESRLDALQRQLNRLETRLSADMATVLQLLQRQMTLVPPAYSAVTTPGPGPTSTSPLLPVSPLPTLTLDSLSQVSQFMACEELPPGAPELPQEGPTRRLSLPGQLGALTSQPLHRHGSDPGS

SMILES	IC50 (Rhodopsin kinase GRK7) [µM]	IC50 [1] [µM]	inhibition at 10 µM (CYP3A4) [%]	IC50 [2] [µM]	IC50 [3] [µM]	IC50 (Rhodopsin kinase GRK1) [µM]	IC50 [4] [µM]	IC50 [5] [µM]	EC50 [6] [µM]	inhibition at 1 h, 10 µM (hERG (KCNH2) [7]) [%]	inhibition at 1 h, 1 µM (hERG (KCNH2) [8]) [%]	IC50 [9] [µM]
O=C(NCc1ccccc1)c1cccc(NCc2nc(-c3ccncc3)n[nH]2)c1	8.8	0.024	91	> 30	6.3	> 30	5.7	0.0018				
Cn1c(CNc2cccc(C(=O)NCc3ccc(C(F)(F)F)cc3)c2)nnc1-c1ccncc1		0.62	36		> 10				930			
Cn1c(CNc2cccc(C(=O)NCc3ccccc3C(F)(F)F)c2)nnc1-c1ccncc1	25	1.4	44	> 30	8.1	3.1	2.3	0.0054		31	9	> 1
CCCn1c(CNc2cccc(C(=O)NCc3ccccc3)c2)nnc1-c1ccncc1		0.11	67		5.7				26			
CNC(=O)c1cccc(NCc2nc(-c3ccncc3)n[nH]2)c1	> 30	0.22	66	> 30	> 10	> 30	> 30	0.021				
Cn1c(CNc2cccc(C(=O)NCc3ccccc3)c2)nnc1-c1ccncc1		0.55	26		> 10				1900			
Cc1c(-c2ccncc2)n[nH]c1CNc1cccc(C(=O)NCc2ccccc2)c1	18	0.023	96	> 30	4.8	> 30	> 30	0.0043				
O=C(NCc1ccccc1C(F)(F)F)c1cccc(NCc2nnc3n2CCOc2cnccc2-3)c1	2.4	0.049	83	> 30		0.27	1.5	0.00065				
c1ccc(COc2cccc(NCc3nc(-c4ccncc4)n[nH]3)c2)cc1		1.4	97		> 10							
CCn1c(CNc2cccc(C(=O)NCc3ccccc3)c2)nnc1-c1ccncc1	> 30	0.076	50	> 30	2.9	> 30		0.0033				
O=C(NCc1ccccc1)c1cccc(NCc2nc(-c3ccncc3)no2)c1		0.35	86		> 10							
Cn1c(CNc2cccc(C(=O)NCc3cccc(C(F)(F)F)c3)c2)nnc1-c1ccncc1		0.53	44		> 10				220			
O=C(Nc1ccccc1)c1cccc(NCc2nc(-c3ccncc3)n[nH]2)c1		0.031	94		0.68							
COc1ccccc1CNC(=O)c1cccc(NCc2nnc(-c3ccncc3)n2C)c1		1.6	60		> 10							
O=C(NCc1ccccc1)c1cccc(NCc2nc(-c3ccncc3CO)n[nH]2)c1		0.54	100		> 10							
c1ccc(CSc2cccc(NCc3nc(-c4ccncc4)n[nH]3)c2)cc1		1.2	100		> 10							
Clc1cccc(NCc2nc(-c3ccncc3)n[nH]2)c1		0.38	93		> 10							

Source: ChEMBL document CHEMBL4038320 (J Med Chem, 2017)
